Converted amounts (≈) assume the structure as drawn.
Tests used:
[1] = tested on: A-549; assay: Bioassay for apoptosis (apoptotic EC50); assay type: cell-based, human; settings: Homo sapiens, A549, unit inferred
In short: (§1)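 Read-out: percent apoptotic cells, scored by microscopy as condensed/fragmented chromatin (DAPI, 2 μg/ml, 15 min, 37° C) or TUNEL-positive fragmented DNA. Compounds tested at 0.01, 0.1, 1, 5, 10 and 20 μg/mL for 1–3 days on overnight-adhered cells.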

[2] = tested on: C-170; assay: Bioassay for apoptosis (apoptotic EC50); assay type: cell-based, human; settings: Homo sapiens, C170, C-170; unit inferred
In short: (§2)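 Apoptosis was quantified microscopically after 1, 2 or 3 days of exposure to test compounds (0.01–20 μg/mL). Cells showing condensed or fragmented nuclear chromatin on DAPI staining, or fragmented DNA by TUNEL, counted as apoptotic.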

[3] = tested on: DLD-1; assay: Bioassay for apoptosis (apoptotic EC50); assay type: cell-based, human; settings: Homo sapiens, unit inferred
In short: as §1

[4] = tested on: DU-145; assay: Bioassay for apoptosis (apoptotic EC50); assay type: cell-based, human; settings: Homo sapiens, unit inferred
In short: as §1

[5] = tested on: HL-60; assay: Bioassay for apoptosis (apoptotic EC50); assay type: cell-based, human; settings: HL-60; unit not given; in µg/mL
In short: as §2

[6] = tested on: HT-29; assay: Bioassay for apoptosis (apoptotic EC50); assay type: cell-based, human; settings: Homo sapiens, unit inferred
In short: as §1

[7] = tested on: Jurkat; assay: Bioassay for apoptosis (apoptotic EC50); assay type: cell-based, human; settings: Homo sapiens, unit inferred
In short: as §1

[8] = tested on: LnCaP; assay: Bioassay for apoptosis (apoptotic EC50); assay type: cell-based, human; settings: Homo sapiens, unit inferred
In short: as §2

[9] = tested on: MCF-7; assay: Bioassay for apoptosis (apoptotic EC50); assay type: cell-based, human; settings: MCF-7; unit not given; in µg/mL
In short: as §2

[10] = tested on: MDA-MB-231; assay: Bioassay for apoptosis (apoptotic EC50); assay type: cell-based, human; settings: MDA-MB-231; unit not given; in µg/mL
In short: as §2

[11] = tested on: MDA-MB-435; assay: Bioassay for apoptosis (apoptotic EC50); assay type: cell-based, human; settings: MDA-MB-435; unit not given; in µg/mL
In short: as §2

[12] = tested on: ME-180; assay: Bioassay for apoptosis (apoptotic EC50); assay type: cell-based, human; settings: ME-180; unit not given; in µg/mL
In short: as §2

[13] = tested on: PC-3; assay: Bioassay for apoptosis (apoptotic EC50); assay type: cell-based, human; settings: PC-3; unit not given; in µg/mL
In short: as §2

[14] = tested on: RL-95-2; assay: Bioassay for apoptosis (apoptotic EC50); assay type: cell-based, human; settings: Homo sapiens, RL95-2, RL-95-2; unit inferred
In short: as §2

[15] = tested on: HMEC; assay: Bioassay for apoptosis (apoptotic EC50); assay type: cell-based; settings: Homo sapiens, unit inferred
In short: as §1

[16] = tested on: MCF-10A; assay: Bioassay for apoptosis (apoptotic EC50); assay type: cell-based; settings: Homo sapiens, unit inferred
In short: as §2

[17] = tested on: PREC; assay: Bioassay for apoptosis (apoptotic EC50); assay type: cell-based; settings: Homo sapiens, unit inferred
In short: as §1

[18] = tested on: T47D; assay: Bioassay for apoptosis (apoptotic EC50); assay type: cell-based; settings: Homo sapiens, unit inferred
In short: as §1

[19] = tested on: MCF-7 cells; assay: DNA synthesis arrest by 3H-uptake (Example 8); assay type: cell-based, human; settings: Homo sapiens, MCF7, 5% serum, 3H-uptake at one day treatment
Method: (§3) MDA-MB-435 and MCF-7 cells at 1.5×10^5/well in 12 well plates for apoptosis and 1.5×10^4/well in 96 well plates for DNA synthesis arrest were incubated overnight in culture media and treated with α-tocopherol, α-tocotrinel, compound 1, 6-0-carboxymethyl alpha-tocotrienol (6-0-CM-α-T, 44), and vitamin E succinate (VES) at different concentrations in experimental media (2% serum for MDA-MB-435 cells and 5% serum for MCF-7 cells). DNA synthesis arrest was determined by ^3H-uptake at one day treatment and apoptosis was detected by DAPI staining at three day treatment. EC50 was calculated as the dosage of test compounds that gave 50% growth inhibition.

[20] = tested on: MDA-MB-435 cells; assay: DNA synthesis arrest by 3H-uptake (Example 8); assay type: cell-based, human; settings: Homo sapiens; MDA-MB-435; 2% serum; 3H-uptake at one day treatment
Method: as §3

[21] = tested on: MCF-7 cells; assay: Apoptosis by DAPI staining (Example 8); assay type: cell-based, human; settings: Homo sapiens, MCF7, 72 h, 5% serum, DAPI staining at three day treatment
Method: as §3

[22] = tested on: MDA-MB-435 cells; assay: Apoptosis by DAPI staining (Example 8); assay type: cell-based, human; settings: Homo sapiens, 72 h; MDA-MB-435; 2% serum; DAPI staining at three day treatment
Method: as §3

[23] = tested on: Fas/Fas ligand signaling pathway; assay: Fas/Fas ligand apoptotic signaling in Fas resistant tumor cells; assay type: cell-based, human
Source text: Activated Fas/Fas ligand signaling may lead to rapid cell death by apoptosis. Thus, for tumor cells to escape death by Fas/Fas ligand, they must inactivate this most important apoptotic pathway. The mechanism for inactivation of the Fas/Fas ligand signaling pathway by tumor cells varies; however, many tumor cells down regulate the expression of Fas receptor and Fas ligand on their membranes.

[24] = tested on: Fas ligand on the membrane of LNCaP prostate cells; assay: Fas ligand expression on cell membrane; assay type: cell-based
[25] = Method: Prior to conducting the preclinical chemotherapeutic studies, compound 1 is assayed in non-tumor Balb/c female mice in an effort to establish the maximum tolerated dose. Compound 1 is dissolved in 100% ethanol to establish a stock solution (2 grams of compound 1 in 5 mls of 100% ethanol) and diluted in peanut oil (non vitamin E supplemented) to yield 20, 10, and 5 mg/0.1 ml. RRR-α-tocopherol succinate (VES; the succinate moiety is attached to RRR-α-tocopherol via an ester linkage) was solubilized and diluted as described above to yield 20 mg/0.1 ml/gavage, serving as an additional control. A total of 30 Balb/c female mice were placed into 6 groups (5 mice/group) and supplemented by gavage with compound 1 daily for a total of 23 days. Group 1 mice were non treated and served a s control; group 2 mice were the vehicle control group and received 0.1 ml of vehicle (ethanol+peanut oil equivalent to treatment groups)/mouse/day for a total of 23 days, […] of VES daily for a total of 23 days. Treatment groups […] were gavaged daily for 23 days with 5, 10, and 20 mgs of compound 1.

For `Cc1c(C)c2c(c(C)c1OCC(=O)O)CC[C@@](C)(CCC[C@H](C)CCC[C@H](C)CCCC(C)C)O2` [Compound 1, 2,5,7,8-tetramethyl-(2R-(4R,8R,12-trimethyltridecyl)chroman-6-yloxy)acetic acid], the EC50 [1] was 10 to 20 µg/mL (≈ 20.5 to 40.9 µM), the EC50 [2] was 10 to 20 µg/mL (≈ 20.5 to 40.9 µM) and the EC50 [3] was 10 to 20 µg/mL (≈ 20.5 to 40.9 µM). The EC50 [4] was 5 to 10 µg/mL (≈ 10.2 to 20.5 µM), the “apoptotic EC50” value [5] was 5-10 and the EC50 [6] was 10 to 20 µg/mL (≈ 20.5 to 40.9 µM). The EC50 [7] was 10 to 20 µg/mL (≈ 20.5 to 40.9 µM), the EC50 [8] was 5 to 10 µg/mL (≈ 10.2 to 20.5 µM) and the “apoptotic EC50” value [9] was 5-10. The “apoptotic EC50” value [10] was 5-10, the “apoptotic EC50” value [11] was 5-10 and the “apoptotic EC50” value [12] was 1-5. The “apoptotic EC50” value [13] was 5-10, the EC50 [14] was 10 to 20 µg/mL (≈ 20.5 to 40.9 µM) and the EC50 [15] was greater than 20 µg/mL. For the same molecule, the EC50 [16] was greater than 20 µg/mL, the EC50 [17] was greater than 20 µg/mL and the EC50 [18] was greater than 20 µg/mL. It also gave an EC50 [19] of 20 µM, an EC50 [20] of 15 µM and an EC50 [21] of 36 µM. For the same molecule, the EC50 [22] was 30 µM, the Fas receptor localisation ([23]; Fas signaling resistant human breast cancer cells) was “transported from the cytoplasm to the membrane” and the “Fas/Fas ligand sensitivity of resistant tumor cells” value ([23]; Fas/Fas ligand resistant tumor cells) was “induce Fas/Fas ligand resistant tumor cells to become Fas/Fas ligand sensitive”. The “anti-Fas triggered apoptosis, co-treatment” value ([23]; human breast and prostate cancer cells, co-treated versus separately) was “synergistic”, the “expression of Fas ligand on the membrane” value [24] was “enhance the expression of Fas ligand” and the toxicity upon autopsy ([25]; at completion of the MTD studies) was “no evidence of toxicity”. The “weights of the mice versus VES treated, untreated and vehicle treated controls” value ([25]; mouse, in vivo) was “no significant difference”.

Reference: US8148424B2, “Tocopherols, tocotrienols, other chroman and side chain derivatives and uses thereof” (Research Development Foundation, priority 1998, dated 2012)
